Measured values as given in ChEMBL document CHEMBL1122021, “Angiotensin-converting enzyme inhibitors: importance of the amide carbonyl of mercaptoacyl amino acids for hydrogen bonding to the enzyme” (J Med Chem, 1982).

Target: T1, Angiotensin-converting enzyme (Oryctolagus cuniculus, UniProt P12822)
T1 sequence (P12822 whole entry): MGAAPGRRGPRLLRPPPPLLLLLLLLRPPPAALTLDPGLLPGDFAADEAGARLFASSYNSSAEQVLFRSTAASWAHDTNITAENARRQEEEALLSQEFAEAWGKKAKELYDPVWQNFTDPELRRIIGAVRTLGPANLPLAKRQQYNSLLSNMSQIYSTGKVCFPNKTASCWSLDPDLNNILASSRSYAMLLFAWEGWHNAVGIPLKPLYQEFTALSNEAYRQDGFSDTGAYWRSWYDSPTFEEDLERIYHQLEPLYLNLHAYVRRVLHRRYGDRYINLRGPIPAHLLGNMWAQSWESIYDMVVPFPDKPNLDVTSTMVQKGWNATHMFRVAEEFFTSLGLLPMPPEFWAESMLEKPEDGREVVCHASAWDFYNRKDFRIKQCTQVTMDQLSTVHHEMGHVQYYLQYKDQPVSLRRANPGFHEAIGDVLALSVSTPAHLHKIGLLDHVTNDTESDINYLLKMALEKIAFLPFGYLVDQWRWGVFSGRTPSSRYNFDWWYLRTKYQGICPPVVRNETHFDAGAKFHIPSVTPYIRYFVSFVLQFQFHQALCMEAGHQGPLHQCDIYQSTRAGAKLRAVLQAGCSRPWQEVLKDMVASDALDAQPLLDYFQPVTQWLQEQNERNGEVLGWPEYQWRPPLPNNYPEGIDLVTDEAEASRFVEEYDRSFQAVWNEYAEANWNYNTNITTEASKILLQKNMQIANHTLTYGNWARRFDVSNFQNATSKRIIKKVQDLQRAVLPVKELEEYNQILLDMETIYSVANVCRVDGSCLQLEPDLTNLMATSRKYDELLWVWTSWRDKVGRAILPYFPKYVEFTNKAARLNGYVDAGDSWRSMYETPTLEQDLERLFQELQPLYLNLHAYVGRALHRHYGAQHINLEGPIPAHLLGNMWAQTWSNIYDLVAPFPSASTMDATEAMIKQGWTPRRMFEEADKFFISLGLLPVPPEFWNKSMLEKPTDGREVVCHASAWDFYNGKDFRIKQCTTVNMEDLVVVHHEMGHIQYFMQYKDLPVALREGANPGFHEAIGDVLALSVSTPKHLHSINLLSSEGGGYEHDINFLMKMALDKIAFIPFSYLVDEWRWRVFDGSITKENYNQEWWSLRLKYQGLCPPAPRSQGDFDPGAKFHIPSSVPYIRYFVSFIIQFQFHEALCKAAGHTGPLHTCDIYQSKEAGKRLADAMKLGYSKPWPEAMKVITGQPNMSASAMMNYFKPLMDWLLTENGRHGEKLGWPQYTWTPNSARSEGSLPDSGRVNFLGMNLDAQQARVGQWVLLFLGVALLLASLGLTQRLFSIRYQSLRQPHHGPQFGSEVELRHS
Assay: In vitro inhibitory activity against Angiotensin I converting enzyme in rabbit lung, using hippuryl-histidyl-leucine as substrate
Conditions: not given

IC50 [µM] | Compound
0.009 | C[C@H](CS)C(=O)N1C(=O)CC[C@H]1C(=O)O
31 | CN(C(=O)CCS)[C@@H](Cc1ccccc1)C(=O)O

Same assay, conditions: read-out: I50

Compound | IC50 [µM]
O=C(O)[C@@H]1CCCN1C(=O)CCS | 0.25
O=C(O)CN1CCCC(CS)C1=O (stereo unspecified) | 10
O=C(O)[C@@H]1CCCN1CCCS | 240
O=C(CCS)N[C@@H](Cc1ccccc1)C(=O)O | 0.85
O=C(O)CC(=O)NCCS | 580
O=C(O)C/C=C/CCS | 720
O=C(O)[C@@H]1CCC(=O)N1CCCS | 640
O=C(O)CNC(=O)CCS | 2.8
CN(CC(=O)O)C(=O)CCS | 3
O=C(O)CCCCCS | 1100
O=C(O)CCC(=O)CCS | 11
O=C(CCS)O[C@@H](Cc1ccccc1)C(=O)O | 0.7
O=C(O)[C@@H]1CCCN1S(=O)(=O)CCS | 11
O=C(O)CCC(O)CCS (stereo unspecified) | 1200
O=C(O)[C@@H]1CCN1C(=O)CCS | 1.7
O=C(O)[C@@H]1CCCCN1C(=O)CCS | 0.46

Further lines, results first:

IC50 [µM] | Compound
37 | O=C(O)[C@@H]1CC[C@H]1C(=O)CCS
3.7 | C[C@@H](CS)C(=O)[C@@H]1CCCC[C@H]1C(=O)O
1.7 | O=C(O)[C@@H]1CCCC[C@H]1C(=O)CCS
2.4 | O=C(O)[C@@H]1CCC[C@H]1C(=O)CCS
1.4 | O=C(CCS)[C@H]1CCCC[C@H]1C(=O)O
0.13 | C[C@H](CS)C(=O)N1CCCC[C@H]1C(=O)O
34 | O=C(CCS)[C@H]1CC[C@H]1C(=O)O
0.74 | C[C@H](CS)C(=O)[C@@H]1CCCC[C@H]1C(=O)O
